Experimental data: patent publication US20100215631A1, “ANTI-INFLAMMATORY COMPOSITION COMPRISING GLYCINE AND LACTOFERRIN AND THE USE THEREOF” (priority 2006, published 2010)

Key:
TNF-α producing cells = assay: Ex-vivo ELISpot of TNF-α producing spleen cells from supplemented mice with zymosan-induced ear inflammation (Example 2); type: in vivo; conditions: 1 μg/ml LPS, after three days of oral supplementation
Protocol: The spleen was removed and pushed through a cell strainer. Red blood cell lysis was performed in 5 ml of could lysis buffer (4.15 g NH4Cl, 0.5 g KHCO3 and 18.6 mg Na2EDTA in 1 liter water at pH 7,3) for 5 minutes. Cells were washed twice in could RPMI (Invitrogen, Merelbeke, Belgium) and after centrifugation diluted to a concentration of 1.10^7 cells/ml. TNF-α producing cells were detected by ELISpot assay in the absence or presence of 1 μg/ml lipopolysaccharide (Sigma) (example 2).
Spleen cells were collected from mice with a zymosan-induced inflammation in the ear after three days of oral supplementation with water (=control), lactoferrin (LF), glycine or a combination of LF and glycine. The number of TNF-α producing cells was determined using an ELISpot assay. LF and glycine inhibit the LPS stimulated number of TNF producing cells by 92% and 97% respectively (back to not zymosan treated control levels). The combination of glycine and lactoferrin inhibited the number of TNF-α positive cells 50% below the […] injected control. This unexpected high rate of inhibition makes the combination of glycine with lactoferrin an excellent choice for the treatment of inflammatory diseases.

Balb/C mice = assay: Zymosan-induced ear swelling in an inflammatory mouse model (Example 1); type: in vivo; conditions: daily gavage 0.1 mg lactoferrin and/or 50 mg glycine, versus non-supplemented mice
Protocol: Balb/C mice (8 weeks of age, Charles River, Maastricht, The Netherlands) were randomly assigned two control and three test groups and supplemented daily for three days with 0.1 mg lactoferrin (DMV, Veghel, The Netherlands), 50 mg glycine (Sigma, Zwijndrecht, The Netherlands) or a combination of both components (test groups 3, 4 and 5 respectively) or vehicle (control groups 1 and 2) was administered by gavage. At day two of the supplementation ear thickness was measured using a micrometer (Mitutoyo Digimatic, Veenendaal, The Netherlands) Subsequently 25 μl 0.5% zymosan (Sigma) in PBS (group 2-5) or vehicle (group 1) was injected subcutaneously in both ears. Ear thickness was measured 3, 6 and 24 hours (example 1) after injection after which the animals were sacrificed.
In mice injected in the ear with zymosan, lactoferrin (LF) and glycine (Gly) supplemented mice show a highest decrease in ear swelling when compared to non-supplemented mice, see Table 1. A clear synergistic effect of LF and Gly is observed.

Compound: NCC(=O)O [Glycine, glycine]
- Inhibition of the LPS stimulated number of TNF producing cells (TNF-α producing cells): 97%
- Decrease in ear swelling (Balb/C mice; 3 hrs after zymosan injection in ears): 10 ± 16
- Decrease in ear swelling (Balb/C mice; 6 hrs after zymosan injection in ears): 28 ± 20
